This is an account of results in BindingDB's records for doi:10.1016/j.ejmech.2019.111919 (University of Auckland, 2020).

Molecules are shown by their SMILES.

Assay [1] is described as follows: Inhibition of Bacillus cereus PC-phospholipase C using phosphoryl-choline as substrate by molybdenum blue dye based assay.
Assay [2] in a line: Inhibition of Bacillus cereus phospholipase C using L-alpha-phosphatidylcholine as substrate by Lineweaver-Burk plot analysis.
Assay [3] addresses Phosphatidylcholine-specific phospholipase C (Bacillus cereus) (UniProt P09598). The experiment in a line: Binding affinity to Bacillus cereus N-terminal His6-tagged full length PC-PLC 3C Protease cleavage site expressed in Escherichia coli BL21(DE3) cells using 3,3-dimethylglutaratic acid as substrate by intrinsic fluorescence assay.
Assay [4] shares this target. The experiment in a line: Inhibition of recombinant Bacillus cereus N-terminal His6-tagged full length PC-PLC 3C Protease cleavage site expressed in Escherichia coli BL21(DE3) cells using phosphatidylcholine as substrate by amplex red assay relative to control.

Phosphatidylcholine-specific phospholipase C (Bacillus cereus), sequence (P09598 whole entry, looked up): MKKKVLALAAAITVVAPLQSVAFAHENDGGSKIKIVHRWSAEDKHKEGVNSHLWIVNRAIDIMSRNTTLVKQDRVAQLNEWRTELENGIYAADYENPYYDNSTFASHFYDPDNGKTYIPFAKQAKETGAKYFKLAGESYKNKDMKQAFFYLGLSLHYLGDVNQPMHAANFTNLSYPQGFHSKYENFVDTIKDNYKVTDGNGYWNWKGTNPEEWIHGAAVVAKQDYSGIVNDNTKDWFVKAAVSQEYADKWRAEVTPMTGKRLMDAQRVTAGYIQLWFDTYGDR

One may read the Ki as the equilibrium dissociation constant of an inhibitor or competing ligand from its target. As to `O=C1N(O)CCCCN1O`, the affinity in assay [1] corresponds to a Ki of 71 µM.
The compound `CCCCCOC(=O)CC(CSP(=O)([O-])OCC[N+](C)(C)C)C(=O)OCCCCC` (stereo not drawn) registered a Ki in assay [2] of 7 µM.
Usually Kd stands for the constant that tells how readily two partners part at equilibrium. A low value points to a tighter complex. As a reminder, the IC50 is the concentration at which inhibition is half-maximal. In the case of `O=C(O)c1cc(NCc2ccccc2Cl)ccc1N1CCOCC1`, in assay [3], the Kd is 325 µM. The IC50 in assay [4] worked out at 3.6 µM.
Take `O=C(O)c1cc(NCc2cccc(Cl)c2)ccc1N1CCOCC1`: the IC50 in assay [4] worked out at 4.9 µM.
As for `O=C(O)c1cc(NCc2cccc(Br)c2)ccc1N1CCOCC1`, the IC50 in assay [4] came to 3.69 µM.
The same measure, in the same setting: as for `O=C(O)C1Cc2c([nH]c3ccccc23)C(c2ccc(O)c(O)c2)N1` (stereo not drawn), the figure is 3.1 µM; as for `CN(C)c1ccc(C2NC(C(=O)O)Cc3c2[nH]c2ccccc32)cc1` (stereo not drawn), 10.9 µM.
